The structures appear in SMILES notation. In brackets after ≈: the same amount, converted by molar mass.

Holding throughout (experiment): microbe, parasite or virus in culture
What all share (assay type): cell-based, M. tuberculosis
Common to all, as to details: Mycobacterium tuberculosis

Assay [1] concerns Rifampin-resistant Mtb strain 1.
Assay [2] has as its system Rifampin-resistant Mtb strain 2.
Assay [3] deals with Isoniazid-resistant Mtb strain 2.
Assay [4] has as its system Isoniazid-resistant Mtb strain 1.
In assay [5] the test system is Fluoroquinolone-resistant Mtb.

Turning to `CC12CC3CC(C)(C1)CC(C(=O)Nc1nc4ccc(OC(F)(F)F)cc4s1)(C3)C2` [CRS400226], the IC90 (commonly the concentration at which the effect reaches the 90% level) was found to be 3.9 µg/mL (≈ 9.19 µM) in assay [1]; 4.7 µg/mL (≈ 11.1 µM) in assay [2]; 4.2 µg/mL (≈ 9.89 µM) in assay [3]; 3.9 µg/mL (≈ 9.19 µM) in assay [4]; 3.7 µg/mL (≈ 8.72 µM) in assay [5].

Values taken from publication PMC6158578, “Optimization and Lead Selection of Benzothiazole Amide Analogs Toward a Novel Antimycobacterial Agent” (Frontiers in Microbiology, 2018).
